According to patent US20250325256A1, “LIPID PATCH” (SENSACH AB, priority 2021, published 2025):

How the values were obtained:
[1] = Reverse iontophoretic extraction of Trp and Kyn in side-by-side cells; assay type: in vitro ADME, pig; conditions: for Flux at anode / Flux at cathode / Cumulative amount at anode / Cumulative amount at cathode: mean ± SEM
Description: Due to the small molecular weight, Trp and Kyn are good candidates for non-invasive monitoring as their passive permeation across the skin membrane is not restricted by the SC's ‘500 Dalton’ rule. Moreover, because of their polar nature (zwitterionic at neutral pH), these compounds are perfect candidates for extraction by reverse iontophoresis. The non-invasive reverse iontophoretic sampling of Trp and Kyn was conducted in vitro using side-by-side cells consisting of two receptor compartments (anodal & cathodal) and a subdermal compartment. Reverse iontophoretic and passive extraction experiments were performed using identical experimental conditions. […] The reverse iontophoretic extraction was performed by application of a constant current 0.3 mA ([…]) for 6 hours in total. Sampling was performed every hour by withdrawing 1 mL of receptor solution and the amount of permeated compound was determined by HPLC-UV. […] The reservoir consists primarily of amino acids and amino acid derivatives originating from proteolysis of filaggrin.
Pig skin, purchased from a local abattoir, was gently cleaned post-sacrifice under cold running water. The skin from abdomen or from the inside of the outer ear was used as in vitro skin model. The hair was trimmed and the skin was dermatomed to a final thickness of 750 μm (Dermatome, Integra LifeSciences, Plainsboro, NJ, USA). Skin samples were then wrapped individually in Parafilm™ and kept at −20° C. for not more than three months until use. Prior to extraction experiments, skin was cut into 4 cm^2 membranes while still being frozen. Prepared skin membranes were then left at ambient environment for 30 minutes to thaw and obtain room temperature. The integrity of each skin membrane was visually inspected against the light in order to ensure that there were no visible damages (holes). Hairs were then further trimmed with scissors and skin was gently rinsed under cold running water.
The Ag/AgCl electrode couple were preferred over platinum because it avoids the sharp decrease in the pH of the solution as their electrochemistry occurs at voltages considerably lower than those required for electrolysis of water. The electrodes were prepared by making a small loop at one of the ends of the silver wire and dipping it into the molten silver chloride in order to coat the loop with AgCl. After cooling, anodal electrodes were prepared by conditioning AgCl coated loops overnight against a platinum wire anode (0.2 mm in diameter, Sigma), at 0.3 mA with 50 mM NaCl as an electrolyte solution resulting in the formation of a layer of silver on the outer surface of the electrodes.
where zp, up, cp are the charge, mobility and concentration of the permeant, ID is the current density (=I/A), F is the Faraday's constant and summation includes all the species in solution that can carry the charge, v is the solvent velocity. Electromigration is a direct cause of current application, which leads to a formation of an electric field across the skin.

[2] = Post iontophoretic passive extraction (further 18 hours); assay type: in vitro ADME, pig; conditions: for Normalized cumulative amount at anode / Normalized cumulative amount at cathode: mean ± SEM
From the text: Therefore, while enhancing extraction at the cathode, electroosmosis (at pH>skin pI) retards the extraction of anions and zwitterions towards the anode as they have to move against the solvent flow. This may result in a build-up of zwitterions moving towards the anode and against the electroosmotic flow. Therefore, the skin membrane that faces the anodal compartment could potentially contain higher amounts of zwitterionic compounds compared to the skin membrane facing the cathodal compartment. In order to further investigate the effect of electroosmosis, the post iontophoretic passive extraction experiments were performed for another 18 hours.
The effect of receptor solution pH on the cumulative amount of endogenous substances extracted from the skin membrane during post iontophoretic passive extraction as well as from passive control experiments is shown in FIG. 16. […] Moreover, in post iontophoretic experiments, there was an increase in the amount of endogenous substances passively extracted into anode compartment with increased pH. In order to determine the amount of endogenous substances obtained during the post iontophoretic step, the cumulative amount of endogenous substances extracted during 6 hours of reverse iontophoresis were subtracted from the total cumulative amount.
In extraction experiments preformed without a cubic phase, sampling was performed every hour for six hours by withdrawing 1 mL from the receptor compartments and replacing it with 1 mL of neat buffer solution. After the final sampling the current was stopped and the donor compartment was emptied. The post iontophoretic passive extraction from the skin membranes was allowed to continue for another 18 hours in order to investigate the effect of electroosmosis, since the skin membrane was the only source of endogenous substance after removal of donor solution. In total 7 samplings were performed over 24 hours i.e., 6 during the current passage and 1 from the post iontophoretic passive extraction. In case of reverse iontophoretic extraction into the cubic phase, the sampling was performed in the same way i.e., every hour for 6 hours 1 mL of receptor solution was replaced with a 1 mL of a neat buffer. However, in contrast to previous procedure, the experiment was terminated after 6 hours of current passage. The cubic phase was collected into 1.7 mL Eppendorf tube ensuring that as little residue as possible was left on the skin surface. The extraction of endogenous substances from the cubic phase was performed as follows: 1 mL of Milli-Q water was added to the cubic phase and left on shaker for 1 hour. After that, each Eppendorf tube was vortex for 1 minute and the final aqueous solution was collected with a syringe. Small part of a cubic phase was taken for SAXD measurements in order to investigate any potential changes in the phase after reverse iontophoretic experiment.

[3] = pH 7.4, after 4 hours of iontophoresis
[4] = receptor pH 4.0, after 6 hours of iontophoresis
[5] = receptor pH 4.0, donor pH 7.4, after 6 h
[6] = receptor pH 7.4, after 6 hours of iontophoresis
[7] = receptor pH 7.4, donor pH 7.4, after 6 h
[8] = receptor pH 9.0, after 6 hours of iontophoresis
[9] = receptor pH 9.0, donor pH 7.4, after 6 h
[10] = pH 4.0, 24 h amount minus first 6 hours
[11] = pH 7.4, 24 h amount minus first 6 hours
[12] = pH 9.0, 24 h amount minus first 6 hours
[13] = pH 7.4, after the first hour of current application
[14] = receptor pH 4.0, iontophoretic vs passive cumulative amount after 6 hours
[15] = receptor pH 7.4, iontophoretic vs passive cumulative amount after 6 hours
[16] = receptor pH 9.0, iontophoretic vs passive cumulative amount after 6 hours
[17] = pH 4.0, from normalized cumulative amounts
[18] = pH 7.4, from normalized cumulative amounts
[19] = pH 9.0, from normalized cumulative amounts

For Nc1ccccc1C(=O)C[C@H](N)C(=O)O [Kyn, L-kynurenine], the “cumulative amount extracted towards the cathode (QC)” value [1, 3] was 2.50±0.44 nmol/cm^2, the Flux at anode [1, 4] was 0.18 ± 0.09 nmol/(h · cm^2) and the Flux at cathode [1, 4] was 0.93 ± 0.23 nmol/(h · cm^2). For the same compound, the “Cumulative amount at anode” value [1, 5] was 0.91 ± 0.44 nmol/cm^2, the “Cumulative amount at cathode” value [1, 5] was 3.76 ± 0.89 nmol/cm^2 and the Flux at anode [1, 6] was 0.11 ± 0.08 nmol/(h · cm^2). The Flux at cathode [1, 6] was 1.88 ± 0.18 nmol/(h · cm^2), the “Cumulative amount at anode” value [1, 7] was 0.25 ± 0.17 nmol/cm^2 and the “Cumulative amount at cathode” value [1, 7] was 5.97 ± 0.73 nmol/cm^2. For the same compound, the Flux at anode [1, 8] was 0.52 ± 0.23 nmol/(h · cm^2), the Flux at cathode [1, 8] was 1.99 ± 0.16 nmol/(h · cm^2) and the “Cumulative amount at anode” value [1, 9] was 0.64 ± 0.27 nmol/cm^2. For the same compound, the “Cumulative amount at cathode” value [1, 9] was 6.38 ± 0.62 nmol/cm^2, the “Normalized cumulative amount at anode” value [2, 10] was 6.56 ± 2.40 nmol/cm^2 and the “Normalized cumulative amount at cathode” value [2, 10] was 5.31 ± 1.35 nmol/cm^2. For the same compound, the “Normalized cumulative amount at anode” value [2, 11] was 14.35 ± 2.33 nmol/cm^2, the “Normalized cumulative amount at cathode” value [2, 11] was 2.12 ± 8.37 nmol/cm^2 and the “Normalized cumulative amount at anode” value [2, 12] was 19.90 ± 2.45 nmol/cm^2. The “Normalized cumulative amount at cathode” value [2, 12] was 10.29 ± 2.07 nmol/cm^2.

In the case of N[C@@H](Cc1c[nH]c2ccccc12)C(=O)O [Trp, L-tryptophan], the “cumulative amount extracted towards the cathode (QC)” value [1, 3] is reported as 3.59±0.43 nmol/cm^2, the “cumulative amount extracted to the anode (QA)” value ([1]; pH 7.4, after 5 hours of current application) is reported as 1.03±0.08 nmol/cm^2 and the “cumulative amount at cathode, times higher than at anode” value ([1]; pH 7.4, after 6 hours) is reported as ~6. For the same compound, the “cumulative amount extracted to the anode (QA)” value [1, 13] was 0.28±0.06 nmol/cm^2, the “cumulative amount extracted towards the cathode (QC)” value [1, 13] was 0.49±0.04 nmol/cm^2 and the Flux at anode [1, 4] was 0.35 ± 0.12 nmol/(h · cm^2). For the same compound, the Flux at cathode [1, 4] was 1.03 ± 0.21 nmol/(h · cm^2), the “Cumulative amount at anode” value [1, 5] was 2.01 ± 0.65 nmol/cm^2 and the “Cumulative amount at cathode” value [1, 5] was 4.39 ± 0.87 nmol/cm^2. The “Ratio Trp/Kyn (after 6 h)” value ([1]; receptor pH 4.0, from cathode fluxes) was 1.01, the “Ratio Trp/Kyn (after 6 h)” value ([1]; receptor pH 4.0, from cumulative amounts at the cathode) was 1.35 ± 0.24 and the “ER Anode” value [1, 14] was 11. For the same compound, the “ER Cathode” value [1, 14] was 24, the Flux at anode [1, 6] was 0.24 ± 0.07 nmol/(h · cm^2) and the Flux at cathode [1, 6] was 2.02 ± 0.19 nmol/(h · cm^2). The “Cumulative amount at anode” value [1, 7] was 1.27±0.13 nmol/cm^2, the “Cumulative amount at cathode” value [1, 7] was 7.36±0.75 nmol/cm^2 and the “Ratio Trp/Kyn (after 6 h)” value ([1]; receptor pH 7.4, from cathode fluxes) was 1.07. For the same compound, the “Ratio Trp/Kyn (after 6 h)” value ([1]; receptor pH 7.4, from cumulative amounts at the cathode) was 1.25 ± 0.03, the “ER Anode” value [1, 15] was 2 and the “ER Cathode” value [1, 15] was ~12. For the same compound, the Flux at anode [1, 8] was 0.69 ± 0.23 nmol/(h · cm^2), the Flux at cathode [1, 8] was 2.32 ± 0.15 nmol/(h · cm^2) and the “Cumulative amount at anode” value [1, 9] was 1.62 ± 0.26 nmol/cm^2. For the same compound, the “Cumulative amount at cathode” value [1, 9] was 8.15 ± 0.59 nmol/cm^2, the “Ratio Trp/Kyn (after 6 h)” value ([1]; receptor pH 9.0, from cathode fluxes) was 1.17 and the “Ratio Trp/Kyn (after 6 h)” value ([1]; receptor pH 9.0, from cumulative amounts at the cathode) was 1.29 ± 0.03. For the same compound, the “ER Anode” value [1, 16] was 2, the “ER Cathode” value [1, 16] was 11 and the “Normalized cumulative amount at anode” value [2, 10] was 6.22 ± 1.49 nmol/cm^2. The “Normalized cumulative amount at cathode” value [2, 10] was 5.36 ± 1.32 nmol/cm^2, the “Ratio (Trp/Kyn) at anode” value [2, 17] was 1.19 ± 0.17 and the “Ratio (Trp/Kyn) at cathode” value [2, 17] was 1.05 ± 0.03. For the same compound, the “Normalized cumulative amount at anode” value [2, 11] was 14.13 ± 2.25 nmol/cm^2, the “Normalized cumulative amount at cathode” value [2, 11] was 7.38 ± 2.57 nmol/cm^2 and the “Ratio (Trp/Kyn) at anode” value [2, 18] was 0.99 ± 0.02. The “Ratio (Trp/Kyn) at cathode” value [2, 18] was 0.86 ± 0.08, the “Normalized cumulative amount at anode” value [2, 12] was 17.52 ± 1.58 nmol/cm^2 and the “Normalized cumulative amount at cathode” value [2, 12] was 9.77 ± 1.95 nmol/cm^2. The “Ratio (Trp/Kyn) at anode” value [2, 19] was 0.89 ± 0.02 and the “Ratio (Trp/Kyn) at cathode” value [2, 19] was 0.95 ± 0.02.
